According to patent US9687551B2, “Compositions comprising lecithin oils and NSAIDs for protecting the gastrointestinal tract and providing enhanced therapeutic activity” (The Board of Regents of the University of Texas System, priority 2000, dated 2017):

Legend:
[1] = system: vascular (endothelial) PGI2, abdominal aorta; assay: Ex vivo 6-keto PGF1α production by abdominal aorta; assay type: in vivo, rat; conditions: 20 mg/kg ASA intragastric, 1 hr, incubated with AA; vs control; FIG. 13B
Method: FIG. 13B graphically depicts the effect of intragastric administration to rats of 20 mg/kg ASA alone or complexed with DPPC on 6KPGF1a production by abdominal aorta. After 1 hr the aorta was removed and each aorta ring was incubated at […] for 10 min in Tris-HCl buffer containing 25 mM AA. 6KPGF1a was measured by RIA. *=p<0.050 vs ASA; **=p<0.001 vs saline; n=4;
This ex vivo approach was then used to measure vascular (endothelial) PGI2. Abdominal aorta excised one hour after drug administration was evaluated for its ability to produce 6-keto PGF1α (a stable metabolite of PGI2) by incubating it with arachidonic acid (AA, 25 mM). […] It is, therefore, possible to achieve selective inhibition of platelet cyclooxygenase and preserve vascular prostacyclin biosynthesis by the administration of PC-aspirin.

[2] = system: PGI2 to TXA2 ratio of carotid artery; assay: PGI2 to TXA2 ratio in affected carotid arteries; assay type: in vivo, rabbit; conditions: 2.5 mg/kg aspirin; FIG. 14C
Method: 6-keto PGF1α (a metabolite of PGI2) and TXA2 concentrations was also measured in the affected carotid arteries.

[3] = system: rabbit carotid artery thrombus; assay: In vivo model of arterial thrombogenesis (carotid artery, anodal current)
Method: The anti-thrombotic effect of aspirin with or without PC was then evaluated in an in vivo model of arterial thrombogenesis. According to the protocol (B24), the left carotid artery of an anesthetized rabbit was subjected to anodal current to the point where mean carotid blood flow velocity was […] control values, which corresponds to 50% occlusion of the vessel by the formed thrombus. At this point the current was discontinued and the test drugs intravenously administered as blood flow was monitored over the next 2-3 hours. It can be appreciated from FIG. 14A that carotid artery blood flow velocity dropped to zero (indicative of complete thrombus occlusion of the vessel) in <60 min in control rabbits treated with either saline or phospholipid alone (mean time until closing=40±17).

[4] = system: fasted Sprague Dawley rats; assay: Acetaminophen liver injury, plasma AST; assay type: in vivo, rat; conditions: acetaminophen 800 mg/kg oral, 24 hrs, P35 SB 1:2 wt ratio, vs saline; FIG. 15
Method: FIG. 15 graphically depicts data relating to liver injury in rats, as indicated by elevations in the plasma levels of the enzyme aspartate transaminase (AST), 24 hours after fasted rats are orally administrated acetaminophen (800 mg/kg) alone or in combination with P35SB at wt. ratios of 1:1 and 1:2.

mucosal COX activity = conditions: aspirin subcutaneously or intragastrically; cited from earlier work
[5] = system: TXB2 production in rat platelets; assay: Ex vivo TXB2 production in platelets after intragastric dosing; conditions: 20 mg/kg intragastric, 30 min, aggregation induced by arachidonic acid; FIG. 13A
Method: FIGS. 13A&B graphically depicts Concentration of TXB2 in rat platelets, 30 min after oral administration of saline, DPPC, ASA (20 mg/kg), or ASA complexed with DPPC. PRP was prepared and aggregation induced by AA (2 mM). TXB2 was measured by RIA. The results expressed as mean±SEM; n=3. *=p<0.050 vs ASA—Abbreviations: DPPC=dipalmitoylphosphatidylcholine; AA=arachidonic acid; pRP=platelet rich plasma; TXB=thromboxane;
Ex vivo animal studies of the effects of phospholipid-aspirin complex (containing equimolar concentration of the two agents) on the ability to produce TXA2 and PGI2 in platelets and vascular tissue respectively were invesitaged. Rats were intragastrically administered either unmodified or DPPC-associated aspirin (20 mg/kg dose), and after 30 minutes, blood was drawn, platelet-rich plasma was prepared, and aggregation was induced by arachidonic acid.

fasted rats [6] = assay: Gastric lesions after intragastric aspirin followed by HCl challenge; assay type: in vivo, rat; conditions: aspirin 18 mg/kg, 0.6 N HCl 45 min later, ASA:lecithin oil 1:0.5, 1:1, 1:2, FIG. 1
Method: One preferred embodiment of this formulation is a lecithin oil based PC-NSAID composition, which has been tested for GI toxicity. The three formulations that were tested include lecithin oils combined with aspirin, indomethacin and ibuprofen. In this study, aspirin was combined with Phosal® 35 SB, a lecithin oil, marketed by Phospholipid GmbH (Cologne, Germany), that is constituted of soy lecithin-derived components in sunflower oil. More particularly, Phosal® 35 SB lecithin oil contains about 33-40 wt. % phosphatidylcholine (PC, not including lyso-phosphatidylcholine), about 26-31 wt. % triglycerides, about 8-13 wt. % free fatty acids, and about 5-9 wt. % glycolipids. The aspirin/lecithin oil (Phosal® 35 SB) composition was intragastrically administered to fasted rats at an aspirin dose of 18 mg/kg, where the NSAID:lecithin oil weight ratio was systematically varied from 1:0.5, to 1:1, to 1:2. In addition, other groups of rats received an equivalent dose of aspirin in the absence of the lecithin oil, or an equivalent volume of saline. Forty five minutes later all animals were intragastrically challenged with 1 ml of 0.6 N HCl, and 15 min later, the animals were euthanized and their stomachs opened and the gastric lesions scored by an established method.^50-52

rats' inflamed paw = assay: Pain threshold of CFA-inflamed hindpaw (Randall-Sellito technique); assay type: in vivo, rat; conditions: 2 h; for pain pressure threshold of inflamed paw (analgesic activity): lecithin oil 1:1
Method: A previously described method was then used to evaluate the anti-inflammatory/analgesic activity of the NSAID-lecithin formulations (in comparison to the NSAIDs alone). This was accomplished be injecting 0.1 ml of Complete Freund's Adjuvant (CFA) into the left hindpaw of rats to induce an acute inflammatory response. […] The results are depicted in FIGS. 4-6.

Tg2576 mouse = conditions: cited from earlier work
SCI rats = conditions: 25 mg NSAID/kg twice a day
Text: In FIG. 7A, the data was plotted directly as recorded (without normalization), while in FIG. 7B, the data values for each animal are compared to its own baseline preoperative values.
Please note that in this case, a lower number is indicative of analgesic, whereas with the Randall Sellito test higher pain pressure threshold values are indicative of analgesia.

fasted rats [7] = assay: GI bleeding (hemoglobin in GI effusate) in rats sensitised with L-NAME; assay type: in vivo, rat; conditions: intragastric, NSAID:lecithin 1:1, L-NAME
Method: Control rats received an equivalent volume of saline. To make the rats more sensitive to the GI damaging effects of the NSAID all rats also were injected with the nitric oxide (NO) synthase inhibitor, L-NAME (20 mg/kg), three times over the 18-20 hr study period, after which the animals were euthanized and the distal 20 cm of the GI tract was flushed with 2 ml of saline, and the effusate collected for hemoglobin analysis—as an index of GI bleeding.

CCCCCCCCCCCCCCCC(=O)OC[C@H](COP(=O)([O-])OCC[N+](C)(C)C)OC(=O)CCCCCCCCCCCCCCC [DPPC, dipalmitoylphosphatidylcholine]
6-keto PGF1α production by abdominal aorta [1]: no effect
PGI2 to TXA2 ratio in affected carotid arteries [2]: improved slightly
time until blood flow velocity dropped to zero (complete occlusion) ([3]; control rabbits treated with saline or phospholipid alone, FIG. 14A): < 60 min
mean time until closing ([3]; control rabbits, saline or phospholipid alone (pooled), in min): 40±17

CC(=O)Nc1ccc(O)cc1 [Tylenol, acetaminophen]
plasma aspartate transaminase (AST), liver injury [4]: significantly elevated

CC(=O)Oc1ccccc1C(=O)O [aspirin]
inhibition of mucosal COX activity (mucosal COX activity): > 90%
6-keto PGF1α production by abdominal aorta [1]: significantly inhibited
TXB2 production in platelets [5]: reduction in TXB2
PGI2 to TXA2 ratio in affected carotid arteries [2]: improved slightly
gastric lesions (fasted rats [6]): high number of gastric lesions
time to vessel occlusion by thrombus ([3]; 2.5 mg/kg aspirin i.v., FIG. 14A): ≤ 61 ± 15 min
vessel occlusion ([3]; aspirin 5-20 mg/kg i.v., 2-3 hr experiment (data not shown)): no vessel occlusion
pain threshold of affected paw (analgesic activity) (rats' inflamed paw; aspirin 10 mg/kg intragastric, all weight ratios tested, FIG. 4): modest ability to increase the pain threshold

CC(C)Cc1ccc(C(C)C(=O)O)cc1 (centres unmarked) [ibuprofen]
amyloid-plaques, dystrophic neurites and activated microglia (Tg2576 mouse): reduce numbers of amyloid-plaques, dystrophic neurites and activated microglia
body weight gain (SCI rats; 6 week period, FIG. 9): do not gain weight
pain pressure threshold (hyperalgesia), Randall Sellito (SCI rats; 6 weeks after SCI, FIGS. 7A, 7B): hyperalgesia due to SCI was not seen
GI bleeding (fasted rats [7]; ibuprofen 100 mg/kg, FIG. 3): modest increase in GI bleeding
pain pressure threshold of inflamed paw (analgesic activity) (rats' inflamed paw; ibuprofen 25 mg/kg intragastric, FIG. 5): modest though non-significant, ability to increase the pain pressure threshold

COc1ccc2c(c1)c(CC(=O)O)c(C)n2C(=O)c1ccc(Cl)cc1 [indomethacin]
GI bleeding (fasted rats [7]; indomethacin 10 mg/kg, FIG. 2): severe increase in GI bleeding
pain pressure threshold of inflamed paw (analgesic activity) (rats' inflamed paw; indomethacin 4 mg/kg intragastric, FIG. 6): modest though non-significant, ability to increase the pain pressure threshold
